For experiment [1], the target named is T1, IκBα ubiquitinating enzyme (SCF complex: ROC1, Cullin1, Skp1, His-TrCP1; with E1, UbcH5b) (Homo sapiens, UniProt P62877+P63208+Q13616+Q9Y297).
T1 construct: His (polyhistidine); made in house; host or cells: insect cells (baculovirus) for the SCF complex and His-E1; E. coli for His-UBCH5b
Nature of the experiment: Measurement of ubiquitinating enzyme activity (IκBα ubiquitination, time-resolved fluorescence with Eu(K)-labeled ubiquitin and XL665-labeled anti-GST antibody). Format: biochemical. The essentials: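 Human SCF complex with E1 and UbcH5b ubiquitinated GST-IκBα pre-phosphorylated by IKKβ (2 mM ATP, pH 7.4, 1 h, RT), with Eu(K)-ubiquitin, 30 min RT. Stopped with EDTA, XL665 anti-GST added for 2 h; 665/620 nm TR-FRET ratio. % inhibition versus no-compound control and no-SCF blank gave IC50.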

The test system of experiment [2] is ICAM-1 expression in HT-29 cells. Nature of the experiment: Measurement of ICAM-1 expressing activity (TNFα-induced ICAM-1 expression, cell ELISA). It counts as cell-based. To be noted: Homo sapiens, Table 6, cell activity inhibition test by method (3), read-out: EVALUATION (IC50 class, inhibition of cell activity). An outline of the steps:
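Cell ELISA read-out (anti-ICAM-1, peroxidase secondary, TMBZ, A450) after methanol fixation. Before that, HT-29 cells had 30 min compound exposure at 37°C (final DMSO 0.5%) followed by 4 h with 30 ng/mL human TNFα.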
For orientation: In an ELISA, binding on a coated surface is turned into a signal by an enzyme label.

The mark [3] stands for this setting: enzyme activity inhibition test, method (1), Table 5, read-out: EVALUATION

Read-outs that look alike come from different tables or passages of the source.

T1 sequence (Q9Y297 whole entry): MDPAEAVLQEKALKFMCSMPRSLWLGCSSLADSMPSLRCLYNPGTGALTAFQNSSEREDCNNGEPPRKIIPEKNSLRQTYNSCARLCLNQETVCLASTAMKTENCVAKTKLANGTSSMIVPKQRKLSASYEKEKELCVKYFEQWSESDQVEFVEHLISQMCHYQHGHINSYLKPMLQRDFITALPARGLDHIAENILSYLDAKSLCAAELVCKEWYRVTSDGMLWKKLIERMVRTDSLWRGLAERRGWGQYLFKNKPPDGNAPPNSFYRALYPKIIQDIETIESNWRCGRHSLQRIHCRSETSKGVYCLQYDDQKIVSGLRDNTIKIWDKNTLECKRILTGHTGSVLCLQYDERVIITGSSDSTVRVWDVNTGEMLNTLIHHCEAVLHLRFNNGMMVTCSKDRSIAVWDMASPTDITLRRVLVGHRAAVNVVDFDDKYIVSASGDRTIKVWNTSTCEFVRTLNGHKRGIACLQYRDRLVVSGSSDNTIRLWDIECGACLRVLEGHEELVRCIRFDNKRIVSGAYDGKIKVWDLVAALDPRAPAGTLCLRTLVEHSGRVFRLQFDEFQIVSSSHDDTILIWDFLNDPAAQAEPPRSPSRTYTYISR
T1 sequence (Q13616 whole entry): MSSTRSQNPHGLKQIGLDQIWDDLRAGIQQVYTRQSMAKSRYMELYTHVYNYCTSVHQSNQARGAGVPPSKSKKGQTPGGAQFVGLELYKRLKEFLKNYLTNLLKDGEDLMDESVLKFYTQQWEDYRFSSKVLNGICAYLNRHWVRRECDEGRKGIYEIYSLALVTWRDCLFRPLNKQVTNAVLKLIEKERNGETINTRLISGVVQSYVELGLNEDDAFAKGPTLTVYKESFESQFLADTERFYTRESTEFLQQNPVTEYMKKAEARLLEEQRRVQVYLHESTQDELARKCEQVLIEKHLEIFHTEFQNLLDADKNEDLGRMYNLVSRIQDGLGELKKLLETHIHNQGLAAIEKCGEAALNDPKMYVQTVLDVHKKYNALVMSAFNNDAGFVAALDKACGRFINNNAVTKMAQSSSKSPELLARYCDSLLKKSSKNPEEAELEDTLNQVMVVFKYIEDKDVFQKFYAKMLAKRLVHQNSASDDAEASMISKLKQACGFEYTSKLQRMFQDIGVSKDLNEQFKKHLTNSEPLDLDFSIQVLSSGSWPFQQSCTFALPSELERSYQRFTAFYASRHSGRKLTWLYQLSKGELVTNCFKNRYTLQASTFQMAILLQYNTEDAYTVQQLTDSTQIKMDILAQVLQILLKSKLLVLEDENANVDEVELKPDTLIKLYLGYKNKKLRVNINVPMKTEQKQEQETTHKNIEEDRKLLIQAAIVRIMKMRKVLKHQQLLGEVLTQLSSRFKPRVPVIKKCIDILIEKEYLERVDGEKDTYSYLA
T1 sequence (P63208 whole entry): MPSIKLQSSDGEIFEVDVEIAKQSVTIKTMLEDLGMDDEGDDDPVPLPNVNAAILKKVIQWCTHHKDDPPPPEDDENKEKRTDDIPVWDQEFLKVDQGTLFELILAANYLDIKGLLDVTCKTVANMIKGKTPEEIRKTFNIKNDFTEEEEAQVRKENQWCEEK
T1 sequence (P62877 whole entry): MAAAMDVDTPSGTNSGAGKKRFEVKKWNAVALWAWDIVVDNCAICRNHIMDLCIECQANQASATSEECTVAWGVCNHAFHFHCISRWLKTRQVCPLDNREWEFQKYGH

In the case of `CC1=NN(c2cccc(C(=O)N3CCOCC3)c2)C(=O)/C1=C\c1ccc2c(c1)OCCO2` [Compound 411], the IC50 in experiment [1] (setting [3]) is less than 10 µM; in experiment [2], less than 40 µM.
For `CC1=NN(c2ccc(C(=O)N(C)CCO)cc2)C(=O)/C1=C\c1ccc2c(c1)OCCO2` [Compound 412] the same measures were 10 to 20 µM and 10 to 20 µM.
For `CC1=NN(c2ccc(C(=O)N3CCC(O)C3)cc2)C(=O)/C1=C\c1ccc2c(c1)OCCO2` (centres unmarked) [Compound 413] the same measures were less than 10 µM and 10 to 20 µM.
The corresponding values for `CC1=NN(c2cccc(C(=O)O)c2)C(=O)C1=Cc1ccc(N2CCN(c3ccccc3)CC2)cc1` [Compound 423] are less than 10 µM and less than 40 µM.
Take `CC1=NN(c2cccc(C(=O)O)c2)C(=O)/C1=C\c1ccc([N+](=O)[O-])o1` [Compound 425]: the results for the IC50 in experiment [1] (setting [3]) and in experiment [2] were less than 10 µM and 10 to 20 µM, respectively.
In the case of `CC1=NN(c2cccc(C(=O)O)c2)C(=O)C1=Cc1cc2ccccc2o1` [Compound 428], the IC50 in experiment [1] is 10 to 20 µM; in experiment [2], less than 40 µM.
Regarding `CC1=NN(c2ccc(C(=O)O)cc2)C(=O)/C1=C\c1cc2ccccc2o1` [Compound 429], the IC50 in experiment [1] (setting [3]) is less than 10 µM; in experiment [2], less than 40 µM.
As for `CC1=NN(c2ccc(C(=O)O)cc2)C(=O)C1=Cc1ccc(N2CCN(c3ccccc3)CC2)cc1` [Compound 430], the IC50 in experiment [1] and in experiment [2] was less than 10 µM each time.
Take `O=C(O)c1ccc(N2N=C(c3ccoc3)C(=Cc3ccc(N4CCN(c5ccccc5)CC4)cc3)C2=O)cc1` [Compound 433]: the IC50 in experiment [1] and in experiment [2] was less than 10 µM throughout.
Regarding `CCCCC1=NN(c2ccc(C(=O)O)cc2)C(=O)/C1=C\c1ccc(N2CCN(c3ccccc3)CC2)cc1` [Compound 434], the IC50 is less than 10 µM in experiment [1] (setting [3]) and less than 40 µM in experiment [2].
The corresponding values for `CC1=NN(c2ccc(C(=O)O)cc2)C(=O)/C1=C\c1ccc(N2CCN(C(=O)OC(C)(C)C)CC2)cc1` [Compound 436] are 10 to 20 µM and less than 40 µM.
As to `CC1=NN(c2cccc(C(=O)O)c2)C(=O)/C1=C\c1ccc(N2CCN(C(=O)OC(C)(C)C)CC2)cc1` [Compound 437], the values for the IC50 in experiment [1] (setting [3]) and in experiment [2] were 10 to 20 µM and less than 40 µM, respectively.
Take `CC1=NN(c2cccc(C(=O)O)c2)C(=O)/C1=C\c1ccc(N2CCN(C(=O)c3ccccc3)CC2)cc1` [Compound 440]: the IC50 in experiment [1] (setting [3]) was less than 10 µM; in experiment [2], 10 to 20 µM.
The corresponding values for `CC1=NN(c2cccc(C(=O)O)c2)C(=O)/C1=C\c1ccc(N2CCOCC2)cc1` [Compound 441] are less than 10 µM and less than 40 µM.
The corresponding values for `CC(=O)N1CCN(c2ccc(/C=C3\C(=O)N(c4cccc(C(=O)O)c4)N=C3C)cc2)CC1` [Compound 442] are less than 10 µM and less than 40 µM.
For `CCCCC1=NN(c2ccc(C(=O)O)cc2)C(=O)/C1=C\c1ccc(N2CCC(CO)CC2)cc1` [Compound 443] the same measures were less than 10 µM and 10 to 20 µM.
For `CC1=NN(c2ccc(C(=O)O)cc2)C(=O)/C1=C\c1ccc(N2CCN(c3ccc(F)cc3)CC2)cc1` [Compound 448], the IC50 was less than 10 µM in experiment [1] (setting [3]) and 10 to 20 µM in experiment [2].
For the compound `CC1=NN(c2cccc(C(=O)O)c2)C(=O)/C1=C\c1ccc(N2CCN(c3ccc(F)cc3)CC2)cc1` [Compound 449], the IC50 in experiment [1] (setting [3]) was less than 10 µM; in experiment [2], 10 to 20 µM.
The corresponding values for `CC1=NN(c2ccc(C(=O)O)cc2)C(=O)/C1=C\c1ccc(-c2cccc(Cl)c2)o1` [Compound 454] are less than 10 µM and less than 40 µM.
The corresponding values for `CC1=NN(c2ccc(C(=O)O)cc2)C(=O)/C1=C\c1ccc(-c2ccccc2Cl)o1` [Compound 456] are less than 10 µM and less than 10 µM.
The corresponding values for `COCC1=NN(c2ccc(C(=O)O)cc2)C(=O)/C1=C\c1ccc2c(c1)OCO2` [Compound 464] are 10 to 20 µM and less than 40 µM.
Turning to `CC1=NN(c2cccc(C(=O)O)c2)C(=O)/C1=C\c1ccc(N2CCCC2)cc1` [Compound 472], the IC50 in experiment [1] (setting [3]) and in experiment [2] was 10 to 20 µM throughout.
On to `CCCCC1=NN(c2cccc(C(=O)O)c2)C(=O)/C1=C\c1ccc2c(c1)OCO2` [Compound 473], for which the results for the IC50 in experiment [1] (setting [3]) and in experiment [2] were 10 to 20 µM and less than 40 µM, respectively.
The corresponding values for `CCCCC1=NN(c2ccc(C(=O)O)cc2)C(=O)/C1=C\c1ccc2[nH]ccc2c1` [Compound 474] are less than 10 µM and less than 40 µM.
`O=C(O)c1cccc(N2N=C(c3ccoc3)C(=Cc3ccc4[nH]ccc4c3)C2=O)c1` [Compound 475, 3-(3-Furan-3-yl-4-(1H-indol-ylmethylene)-5-oxo-4,5-dihydropyrazol-1-yl) benzoic acid]: the IC50 is less than 10 µM in experiment [1] (read-out: EVALUATION, enzyme activity inhibition test, method (1), Table 5) and 10 to 20 µM in experiment [2].
Regarding `O=C(O)c1ccc(N2N=C(c3ccoc3)/C(=C/c3ccc4[nH]ccc4c3)C2=O)cc1` [Compound 477], the IC50 in experiment [1] (setting [3]) is less than 10 µM; in experiment [2], less than 40 µM.
The corresponding values for `O=C(O)c1cccc(N2N=C(c3ccoc3)/C(=C/c3ccc(N4CCCC4)cc3)C2=O)c1` [Compound 478] are 10 to 20 µM and 10 to 20 µM.
Take `CCCCC1=NN(c2cccc(C(=O)O)c2)C(=O)/C1=C\c1ccc(N2CCCC2)cc1` [Compound 479]: the IC50 in experiment [1] (setting [3]) and in experiment [2] was 10 to 20 µM each time.
In the case of `CCCCC1=NN(c2ccc(C(=O)O)cc2)C(=O)C1=Cc1ccc2c(c1)OCO2` [Compound 480], the IC50 in experiment [1] was less than 10 µM; in experiment [2], 10 to 20 µM.
Consider `CCCCC1=NN(c2cccc(C(=O)O)c2)C(=O)/C1=C\c1ccc2[nH]ccc2c1` [Compound 481], for which the results for the IC50 in experiment [1] (setting [3]) and in experiment [2] were less than 10 µM and less than 40 µM, respectively.
The corresponding values for `O=C(O)c1ccc(N2N=C(C3CC3)/C(=C/c3ccc4[nH]ccc4c3)C2=O)cc1` [Compound 482] are less than 10 µM and less than 40 µM.
For `COc1ccccc1-c1ccc(/C=C2\C(=O)N(c3ccc(C(=O)O)cc3)N=C2c2ccoc2)o1` [Compound 483] the same measures were less than 10 µM and 10 to 20 µM.
For `O=C(O)c1cccc(N2N=C(c3ccoc3)/C(=C/c3ccc(-c4ccccc4F)o3)C2=O)c1` [Compound 484] the same measures were less than 10 µM and 10 to 20 µM.
Take `COc1ccccc1-c1ccc(/C=C2\C(=O)N(c3cccc(C(=O)O)c3)N=C2c2ccoc2)o1` [Compound 485]: the IC50 in experiment [1] (setting [3]) was less than 10 µM; in experiment [2] it was less than 40 µM.
The corresponding values for `CC1=NN(c2cccc(C(=O)O)c2)C(=O)/C1=C\c1ccc(-c2ccccc2F)o1` [Compound 486] are 10 to 20 µM and less than 40 µM.
For `Cn1cc(-c2ccc(/C=C3\C(=O)N(c4ccc(C(=O)O)cc4)N=C3c3ccoc3)o2)cn1` [Compound 489], the IC50 in experiment [1] (setting [3]) and in experiment [2] was less than 10 µM throughout.
As to `O=C(O)c1cccc(N2N=C(c3ccoc3)/C(=C/c3ccc(-c4cnn(Cc5ccccc5)c4)o3)C2=O)c1` [Compound 490], the IC50 in experiment [1] (setting [3]) was less than 10 µM; in experiment [2], 10 to 20 µM.
For `Cn1cc(-c2ccc(/C=C3\C(=O)N(c4cccc(C(=O)O)c4)N=C3c3ccoc3)o2)cn1` [Compound 491] the same measures were less than 10 µM and 10 to 20 µM.
Regarding `O=C(O)c1ccc(N2N=C(c3ccoc3)/C(=C/c3ccc(-c4cnn(Cc5ccccc5)c4)o3)C2=O)cc1` [Compound 492], the IC50 is less than 10 µM in experiment [1] (setting [3]) and 10 to 20 µM in experiment [2].
Regarding `CC1=NN(c2cccc(C(=O)O)c2)C(=O)/C1=C\c1ccc2c(ccn2Cc2ccccc2)c1` [Compound 494], the IC50 in experiment [1] (setting [3]) is less than 10 µM; in experiment [2] it was less than 40 µM.
As to `CC1=NN(c2ccc(C(=O)O)cc2)C(=O)/C1=C\c1ccc2c(ccn2Cc2cc(C)on2)c1` [Compound 496], the IC50 in experiment [1] (setting [3]) is less than 10 µM; in experiment [2] it was less than 40 µM.
The corresponding values for `CC1=NN(c2ccc(C(=O)O)cc2)C(=O)/C1=C\c1ccc2c(ccn2Cc2c(C)noc2C)c1` [Compound 497] are less than 10 µM and 10 to 20 µM.
For `CC1=NN(c2ccc(C(=O)O)cc2)C(=O)/C1=C\c1ccc2c(ccn2CC2CCCCC2)c1` [Compound 498] the same measures were less than 10 µM and less than 40 µM.
For `CC1=NN(c2cccc(C(=O)O)c2)C(=O)/C1=C\c1ccc2c(ccn2CC2CC2)c1` [Compound 499] the same measures were less than 10 µM and less than 40 µM.
On to `CC1=NN(c2ccc(C(=O)O)cc2)C(=O)/C1=C\c1ccc2c(ccn2Cc2csc(C)n2)c1` [Compound 500], for which the IC50 in experiment [1] (setting [3]) is less than 10 µM; in experiment [2] it was less than 40 µM.
On to `COc1cccc(-c2ccc(/C=C3\C(=O)N(c4ccc(C(=O)O)cc4)N=C3C)o2)c1` [Compound 501], for which the IC50 in experiment [1] (setting [3]) and in experiment [2] was less than 10 µM in each case.
Turning to `CC(=O)c1ccc(-c2ccc(/C=C3\C(=O)N(c4ccc(C(=O)O)cc4)N=C3C)o2)cc1` [Compound 502], the IC50 in experiment [1] (setting [3]) and in experiment [2] was less than 10 µM throughout.
`COc1cccc(-c2ccc(/C=C3\C(=O)N(c4cccc(C(=O)O)c4)N=C3C)o2)c1` [Compound 503]: the figures for the IC50 in experiment [1] (setting [3]) and in experiment [2] were 10 to 20 µM and less than 10 µM, respectively.
The corresponding values for `CC(=O)c1ccc(-c2ccc(/C=C3\C(=O)N(c4cccc(C(=O)O)c4)N=C3C)o2)cc1` [Compound 504] are 10 to 20 µM and 10 to 20 µM.

The values are drawn from patent EP1900728A1 (Genecare Research Institute Co., Ltd, priority 2005, dated 2006).
